Experimental data published in patent US20010038824A1, “Intranasal cyclic peptide formulations” (priority 2000, published 2001).
Numbered stars: 1 amine (or outer) side, 2 acyl side, 3 side chain; on linkers, the order of the positions; unused ones are H or OH. Bridge positions count the residues as written; N and C are the ends. Square brackets hold non-standard residues; d marks the D form. Peptide text beside a SMILES is read from it. * marks the point of attachment. ξ: configuration not given here. Hexadecanoyl(3R-amino) = CCCCCCCCCCCCC[C@H](CC(=O)[*:2])N[*:1]; X5 = CC(C)CCCOc1ccc(-c2ccc(CC[C@H](CC(=O)[*:1])N[*:2])cc2)cc1; X11 = CCCCCOc1ccc(-c2ccc(CC[C@H](CC(=O)[*:1])N[*:2])cc2)cc1; X8 = CCCCCCCCCOc1ccc2cc(CC[C@H](CC(=O)[*:1])N[*:2])ccc2c1; Orn(Nα,Nα-(2-aminoethyl)2) = NCCC[C@@H](C(=O)*)N(CCN)CCN; NαBis(2-aminoethyl)dOrn = NCCC[C@H](C(=O)*)N(CCN)CCN; ξTyr(3-NO2) = NC(Cc1ccc(O)c([N+](=O)[O-])c1)C(=O)O; X15 = CCCCCCCCCCCCCCC[C@H](CC(=O)[*:2])N(C)[*:1]; X16 = NCC(=O)Nc1cc(CC(N[*:1])C(=O)[*:2])ccc1O; X4 = CCCCCCCCCCCCC[C@H](CC(=O)[*:1])O[*:2]; X3 = NCCCN(CCCC(N[*:1])C(=O)[*:2])[*:3]; X2 = NC(=O)CC(O)C(N[*:1])C(=O)[*:2]; X12 = CN(C)CCCC(N[*:1])C(=O)[*:2]; X1 = O=C(C1C(O)CCN1[*:1])[*:2]; ξOrn(3-OH) = NCCC(O)C(N)C(=O)O; ξY = NC(Cc1ccc(O)cc1)C(=O)O; X14 = NCCCNC(CCCN)C(=O)*; X13 = CCCCCCCCCCCCCCCN*; ξHyp = O=C(O)C1CC(O)CN1; ξOrn = NCCCC(N)C(=O)O; ξT = CC(O)C(N)C(=O)O; ξV = CC(C)C(N)C(=O)O; ξP = O=C(O)C1CCCN1; ξA = CC(N)C(=O)O; Sar = CNCC(=O)O

Tests used:
Type in all cases: cell-based
[1] = system: Aspegillus fumigatus CF1003; assay: In vitro antifungal activity, broth micro-dilution; settings: YNB medium with 0.2% agarose, 1-2 days at 35° C.
Protocol: (§1) The in vitro antifungal activities of the representative Aerothricins of the present study were evaluated by determining the 50% inhibitory concentration (IC50), which was calculated as the lowest concentration of an antifungal to inhibit the growth of fungus to […] turbidity compared with the drug-free control growth spectrophotometrically.
(§2) The IC50 values were determined by the broth micro-dilution procedure based on NCCLS Approved Standard with the following minor modifications (National Committee for Clinical Laboratory Standards. (1997) Reference method for broth dilution antifungal susceptibility testing for yeasts. Approved standard. Document M27-A). Yeast Nitrogen Base (YNB; Difco Lab.) supplemented with 1% glucose and 0.25% K2HPO4 was used as testing medium for yeast, the same medium solidified with 0.2% low melting point agarose (BRL) was used for filamentous fungi. Inoculum size was 1-3×10^4 cells/ml, and incubation was performed for 1-2 days at 35° C.

[2] = system: Candida albicans CY1002; assay: In vitro antifungal activity, broth micro-dilution; settings: YNB medium, 1-2 days at 35° C.
Protocol: as §1, §2

[3] = system: Fusarium solani CF1088; assay: In vitro antifungal activity, broth micro-dilution; settings: YNB medium with 0.2% agarose, 1-2 days at 35° C.
Protocol: as §1, §2

[4] = system: mouse hepatocytes; assay: In vitro hepatotoxicity test; settings: mouse hepatocyte monolayers, 1 day exposure, morphological evaluation
Description: The mouse hepatocytes were isolated by a collagenase digestion and cultured in microtest plates. The hepatocyte monolayers were exposed to the test Aerothricins in the culture system for 1 day. After the culture period, the hepatocytes were observed under a microscope and evaluated morphologically. The degree of the morphological alteration (degeneration) of the hepatocytes by the test Aerothricins were compared with WF11243 and LY303366.

| SMILES | In vitro Antifungal activity, IC50, Aspegillus fumigatus CF1003 [1] [µg/mL] | In vitro Antifungal activity, IC50, Candida albicans CY1002 [2] [µg/mL] | In vitro Antifungal activity, IC50, Fusarium solani CF1088 [3] [µg/mL] | Cytotoxicity to hepatocyte [4] [µg/mL] |
| --- | --- | --- | --- | --- |
| CCCCCCCCCCCCC[C@@H]1CC(=O)NC(C(C)O)C(=O)NC(C)C(=O)NC(Cc2ccc(O)cc2)C(=O)NC(C(C)C)C(=O)N2CC(O)CC2C(=O)NC(C(C)O)C(=O)NC(C(C)O)C(=O)N2CCC(O)C2C(=O)NC(C(O)CC(N)=O)C(=O)NCC(=O)NC(C(C)O)C(=O)NC(CCCN(CCCN)C(=O)C(CCCN)NCCCN)C(=O)O1 (some centres unmarked) [Aerothricin 136] ([ξT][ξA][ξY][ξV][ξHyp][ξT][ξT][X1][X2]G[ξT][X3](X14); linker N-C via X4) | 0.28 | 0.20 | 0.04 | – |
| CCCCCCCCCCCCCCCNC(=O)[C@@H]1CC(=O)NC(C(C)O)C(=O)NC(C)C(=O)NC(Cc2ccc(O)cc2)C(=O)NC(C(C)C)C(=O)N2CC(O)CC2C(=O)NC(C(C)O)C(=O)NC(C(C)O)C(=O)N2CCC(O)C2C(=O)NC(C(O)CC(N)=O)C(=O)NCC(=O)NC(C(C)O)C(=O)NC(CCCN(C)C)C(=O)N1 (stereo partly drawn) [Aerothricin 75] ([ξT][ξA][ξY][ξV][ξHyp][ξT][ξT][X1][X2]G[ξT][X12]D-X13; lactam N-13) | 0.10 | 0.15 | 1.40 | – |
| CCCCCCCCCOc1ccc2cc(CC[C@@H]3CC(=O)NC(C(C)O)C(=O)NC(C)C(=O)NC(Cc4ccc(O)cc4)C(=O)NC(C(C)C)C(=O)N4CC(O)CC4C(=O)NC(C(C)O)C(=O)NC(C(C)O)C(=O)N4CCC(O)C4C(=O)NC(C(O)CC(N)=O)C(=O)NCC(=O)NC(C(C)O)C(=O)NC(CCCN)C(=O)N3)ccc2c1 (some centres unmarked) [Aerothricin 53] ([ξT][ξA][ξY][ξV][ξHyp][ξT][ξT][X1][X2]G[ξT][ξOrn]; linker N-C via X8) | – | – | – | >100 |
| CCCCCCCCCCOc1ccc(CC[C@@H]2CC(=O)NC(C(C)O)C(=O)NC(C)C(=O)NC(Cc3ccc(O)cc3)C(=O)NC(C(C)C)C(=O)N3CC(O)CC3C(=O)NC(C(C)O)C(=O)NC(C(C)O)C(=O)N3CCC(O)C3C(=O)NC(C(O)CC(N)=O)C(=O)NCC(=O)NC(C(C)O)C(=O)NC(CCCN)C(=O)N2)cc1 (single isomer, unassigned) [Aerothricin 47] | – | – | – | >100 |
| CCCCCOc1ccc(-c2ccc(CC[C@@H]3CC(=O)NC(C(C)O)C(=O)NC(C)C(=O)NC(Cc4ccc(O)c([N+](=O)[O-])c4)C(=O)NC(C(C)C)C(=O)N4CC(O)CC4C(=O)NC(C(C)O)C(=O)NC(C(C)O)C(=O)N4CCC(O)C4C(=O)NC(C(O)CC(N)=O)C(=O)NCC(=O)NC(C(C)O)C(=O)NC(CCCN)C(=O)N3)cc2)cc1 (some centres unmarked) [Aerothricin 54] ([ξT][ξA][ξTyr(3-NO2)][ξV][ξHyp][ξT][ξT][X1][X2]G[ξT][ξOrn]; linker N-C via X11) | 0.17 | 0.15 | 0.74 | – |
| CCCCCCCCCCCCC[C@@H]1CC(=O)NC(C(C)O)C(=O)NC(C)C(=O)NC(Cc2ccc(O)cc2)C(=O)NC(C(C)C)C(=O)N2CC(O)CC2C(=O)NC(C(C)O)C(=O)NC(C(C)O)C(=O)N2CCC(O)C2C(=O)NC(C(O)CC(N)=O)C(=O)NCC(=O)NC(C(C)O)C(=O)NC(CCCN(CCCN)C(=O)[C@@H](CCCN)N(CCN)CCN)C(=O)O1 (some centres unmarked) [Aerothricin 135] ([ξT][ξA][ξY][ξV][ξHyp][ξT][ξT][X1][X2]G[ξT][X3](NαBis(2-aminoethyl)dOrn); linker N-C via X4) | – | – | – | >100 |
| CCCCCCCCCCCCC[C@@H]1CC(=O)NC(C(C)O)C(=O)NC(C)C(=O)NC(Cc2ccc(O)cc2)C(=O)NC(C(C)C)C(=O)N2CC(O)CC2C(=O)NC(C(C)O)C(=O)NC(C(C)O)C(=O)N2CCC(O)C2C(=O)NC(C(O)CC(N)=O)C(=O)NCC(=O)NC(C(C)O)C(=O)NC(CCCN(CCCN)C(=O)[C@H](CCCN)N(CCN)CCN)C(=O)O1 (some centres unmarked) [Aerothricin 134] ([ξT][ξA][ξY][ξV][ξHyp][ξT][ξT][X1][X2]G[ξT][X3](Orn(Nα,Nα-(2-aminoethyl)2)); linker N-C via X4) | – | – | – | >100 |
| CC(C)CCCOc1ccc(-c2ccc(CC[C@@H]3CC(=O)NC(C(C)O)C(=O)NC(C)C(=O)NC(Cc4ccc(O)cc4)C(=O)NC(C(C)C)C(=O)N4CC(O)CC4C(=O)NC(C(C)O)C(=O)NC(C(C)O)C(=O)N4CCC(O)C4C(=O)NC(C(O)CC(N)=O)C(=O)NCC(=O)NC(C(C)O)C(=O)NC(CCCN)C(=O)N3)cc2)cc1 (some centres unmarked) [Aerothricin 45] ([ξT][ξA][ξY][ξV][ξHyp][ξT][ξT][X1][X2]G[ξT][ξOrn]; linker N-C via X5) | – | – | – | >100 |
| CCCCCCCCCCCCC[C@@H]1CC(=O)NC(C(C)O)C(=O)NC(C)C(=O)NC(Cc2ccc(O)cc2)C(=O)NC(C(C)C)C(=O)N2CC(O)CC2C(=O)NC(C(C)O)C(=O)NC(C(C)O)C(=O)N2CCC(O)C2C(=O)NC(C(O)CCN)C(=O)NCC(=O)NC(C(C)O)C(=O)NC(CCCN)C(=O)O1 (some centres unmarked) [Aerothricin 31] ([ξT][ξA][ξY][ξV][ξHyp][ξT][ξT][X1][ξOrn(3-OH)]G[ξT][ξOrn]; linker N-C via X4) | 0.49 | 0.07 | 0.70 | – |
| CCCCCCCCCCCCC[C@@H]1CC(=O)NC(C(C)O)C(=O)NC(C)C(=O)NC(Cc2ccc(O)cc2)C(=O)NC(C(C)C)C(=O)N2CC(O)CC2C(=O)NC(C(C)O)C(=O)NC(C(C)O)C(=O)N2CCC(O)C2C(=O)NC(C(O)CC(N)=O)C(=O)NCC(=O)NC(C(C)O)C(=O)NC(CCCNC(=O)CNC)C(=O)O1 (some centres unmarked) [Aerothricin 14] ([ξT][ξA][ξY][ξV][ξHyp][ξT][ξT][X1][X2]G[ξT][ξOrn](Sar); linker N-C via X4) | – | – | – | >100 |
| CCCCCCCCCCCCCCC[C@@H]1CC(=O)NC(C(C)O)C(=O)NC(C)C(=O)NC(Cc2ccc(O)cc2)C(=O)NC(C(C)C)C(=O)N2CC(O)CC2C(=O)NC(C(C)O)C(=O)NC(C(C)O)C(=O)N2CCC(O)C2C(=O)NC(C(O)CC(N)=O)C(=O)NCC(=O)NC(C(C)O)C(=O)NC(CCCN)C(=O)N1C (some centres unmarked) [Aerothricin 95] (cyclo(G[ξT][ξOrn][X15][ξT][ξA][ξY][ξV][ξHyp][ξT][ξT][X1][X2])) | 0.10 | 0.14 | 0.74 | – |
| CCCCCCCCCCCCC[C@@H]1CC(=O)NC(C(C)O)C(=O)NC(C)C(=O)NC(Cc2ccc(O)c(NC(=O)CN)c2)C(=O)NC(C(C)C)C(=O)N2CC(O)CC2C(=O)NC(C(C)O)C(=O)NC(C(C)O)C(=O)N2CCC(O)C2C(=O)NC(C(O)CC(N)=O)C(=O)NCC(=O)NC(C(C)O)C(=O)NC(CCCNC(=O)CN)C(=O)O1 (some centres unmarked) [Aerothricin 21] ([ξT][ξA][X16][ξV][ξHyp][ξT][ξT][X1][X2]G[ξT][ξOrn](Gly); linker N-C via X4) | – | – | – | >100 |
| CCCCCCCCCCCCC[C@@H]1CC(=O)NC(C(C)O)C(=O)NC(C)C(=O)NC(Cc2ccc(O)c([N+](=O)[O-])c2)C(=O)NC(C(C)C)C(=O)N2CC(O)CC2C(=O)NC(C(C)O)C(=O)NC(C(C)O)C(=O)N2CCC(O)C2C(=O)NC(C(O)CC(N)=O)C(=O)NCC(=O)NC(C(C)O)C(=O)NC(CCCN)C(=O)N1 (stereo partly drawn) [Aerothricin 39] (cyclo(G[ξT][ξOrn][Hexadecanoyl(3R-amino)][ξT][ξA][ξTyr(3-NO2)][ξV][ξHyp][ξT][ξT][X1][X2])) | 0.17 | 0.09 | 0.70 | – |
| CCCCCCCCCCCCC[C@@H]1CC(=O)NC(C(C)O)C(=O)NC(C)C(=O)NC(Cc2ccc(O)cc2)C(=O)NC(C(C)C)C(=O)N2CC(O)CC2C(=O)NC(C(C)O)C(=O)NC(C(C)O)C(=O)N2CCC(O)C2C(=O)NC(C(O)CC(N)=O)C(=O)NCC(=O)NC(C(C)O)C(=O)NC(CCCNC(=O)C2CCCN2)C(=O)O1 (some centres unmarked) [Aerothricin 15] ([ξT][ξA][ξY][ξV][ξHyp][ξT][ξT][X1][X2]G[ξT][ξOrn](ξP); linker N-C via X4) | – | – | – | >100 |
| CCCCCCCCCCCCCCCNC(=O)[C@@H]1CC(=O)NC(C(C)O)C(=O)NC(C)C(=O)NC(Cc2ccc(O)c([N+](=O)[O-])c2)C(=O)NC(C(C)C)C(=O)N2CC(O)CC2C(=O)NC(C(C)O)C(=O)NC(C(C)O)C(=O)N2CCC(O)C2C(=O)NC(C(O)CC(N)=O)C(=O)NCC(=O)NC(C(C)O)C(=O)NC(CCCN)C(=O)N1 (stereo partly drawn) [Aerothricin 77] ([ξT][ξA][ξTyr(3-NO2)][ξV][ξHyp][ξT][ξT][X1][X2]G[ξT][ξOrn]D-X13; lactam N-13) | 0.10 | 0.13 | 0.67 | – |
| CCCCCCCCCCCCC[C@@H]1CC(=O)NC(C(C)O)C(=O)NC(C)C(=O)NC(Cc2ccc(OC)cc2)C(=O)NC(C(C)C)C(=O)N2CC(O)CC2C(=O)NC(C(C)O)C(=O)NC(C(C)O)C(=O)N2CCC(O)C2C(=O)NC(C(O)CC(N)=O)C(=O)NCC(=O)NC(C(C)O)C(=O)NC(CCCN(C)C)C(=O)O1 (some centres unmarked) [Aerothricin 12] ([ξT][ξA][ξY](Me)[ξV][ξHyp][ξT][ξT][X1][X2]G[ξT][X12]; linker N-C via X4) | 0.10 | 0.09 | 2.20 | – |
